Measured values reported in ChEMBL document CHEMBL5233249, “Recent advancements in the development of heterocyclic anti-inflammatory agents” (Eur J Med Chem, 2020).

Key:
Rattus norvegicus [1] = test: Anti-inflammatory activity in Carrageenan-induced rat paw edema in Wistar rat assessed as increase in paw edema volume at 1 hr; type: functional
Rattus norvegicus [2] = test: Anti-inflammatory activity in Carrageenan-induced rat paw edema in Wistar rat assessed as increase in paw edema volume (reference value: 1.66 +/- 0.01); type: functional
Rattus norvegicus [3] = test: Anti-inflammatory activity in Carrageenan-induced rat paw edema in Wistar rat assessed as increase in paw edema volume at 2 hr; type: functional
Rattus norvegicus [4] = test: Anti-inflammatory activity in Carrageenan-induced paw edema in Swiss albino rat assessed as inhibition relative to control; type: functional
Rattus norvegicus [5] = test: Anti-inflammatory activity in Carrageenan-induced rat paw edema in Wistar rat assessed as increase in paw edema volume relative to control; type: functional
Rattus norvegicus [6] = test: Anti-inflammatory activity in Carrageenan-induced rat paw edema in Wistar rat assessed as increase in paw edema volume at 2 hr relative to control; type: functional
Rattus norvegicus [7] = test: Anti-inflammatory activity in Carrageenan-induced rat paw edema in Wistar rat assessed as increase in paw edema volume at 4 hr relative to control; type: functional
[8] = molecular target: T1, Prostaglandin G/H synthase 1 (Ovis aries, UniProt P05979); test: Inhibition of ovine COX-1 by EIA method
T1 sequence (P05979 whole entry): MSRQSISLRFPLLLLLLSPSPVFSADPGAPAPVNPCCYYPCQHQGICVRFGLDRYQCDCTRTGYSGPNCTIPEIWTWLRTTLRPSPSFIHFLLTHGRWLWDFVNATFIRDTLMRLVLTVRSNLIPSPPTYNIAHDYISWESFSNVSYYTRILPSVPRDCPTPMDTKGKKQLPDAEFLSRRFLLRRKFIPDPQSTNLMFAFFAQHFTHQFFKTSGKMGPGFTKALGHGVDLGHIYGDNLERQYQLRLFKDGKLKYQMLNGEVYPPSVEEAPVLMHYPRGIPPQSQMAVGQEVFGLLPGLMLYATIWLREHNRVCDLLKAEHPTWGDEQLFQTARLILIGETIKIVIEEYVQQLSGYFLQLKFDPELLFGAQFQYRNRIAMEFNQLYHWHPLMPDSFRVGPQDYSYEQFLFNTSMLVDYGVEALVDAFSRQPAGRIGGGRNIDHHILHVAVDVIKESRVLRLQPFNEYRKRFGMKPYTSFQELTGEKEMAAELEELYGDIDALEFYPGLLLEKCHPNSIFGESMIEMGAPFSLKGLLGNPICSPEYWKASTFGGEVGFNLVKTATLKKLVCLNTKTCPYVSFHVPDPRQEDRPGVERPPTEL

Rattus norvegicus [9] = test: Anti-inflammatory activity in Carrageenan-induced rat paw edema in Wistar rat assessed as increase in paw edema volume at 4 hr; type: functional
Rattus norvegicus [10] = test: Anti-inflammatory activity in Carrageenan-induced rat paw edema in Wistar rat assessed as increase in paw edema volume at 1 hr relative to control; type: functional
Rattus norvegicus [11] = test: Anti-inflammatory activity in Carrageenan-induced paw edema in Wistar rat assessed as inhibition of paw edema; type: functional
[12] = molecular target: Prostaglandin G/H synthase 1 (Homo sapiens, UniProt P23219); test: Inhibition of COX-1 (unknown origin) at 40 uM relative to control
Rattus norvegicus [13] = test: Anti-inflammatory activity in Carrageenan-induced paw edema in PO dosed Swiss albino rat model at 10 mg/kg assessed as inhibition in volume of edema measured after 1 hrs relative to control; type: functional
Rattus norvegicus [14] = test: Ulcerogenic activity in Swiss albino Wistar rat assessed as ulcer lesion score at 100 mg/kg, po; type: functional
Mus musculus [15] = test: Anti-inflammatory activity against Carrageenan-induced paw edema in mouse model assessed as inhibition of edema at 100 mg/kg measured after 4 hrs relative to control; type: functional; design: scale not given: the % may be the effect or the level left
Rattus norvegicus [16] = test: Anti-inflammatory activity against formalin-induced foot paw edema in Wistar rat at 5 mg/kg, po assessed as inhibition of edema measured after 4 hr relative to control; type: functional
Rattus norvegicus [17] = test: Anti-inflammatory activity against formalin-induced foot paw edema in PO dosed rat at 10 mg/kg assessed as inhibition of edema measured after 1 hr relative to control; type: functional; design: scale not given: the % may be the effect or the level left
Mus musculus [18] = test: Anti-inflammatory activity in Carrageenan-induced paw edema mouse model assessed as inhibition of granuloma measured after 24 hrs relative to control; type: functional
Mus musculus [19] = test: Analgesic activity in PO dosed Swiss albino mouse assessed as protection of paw edema measured after 2 hrs at 20 mg/kg relative to control; type: functional
Mus musculus [20] = test: Anti-inflammatory activity in Carrageenan-induced paw edema in […] mouse model assessed as inhibition of edema at 200 mg/kg, po relative to control; type: functional; design: scale not given: the % may be the effect or the level left
[21] = molecular target: T2, Polyunsaturated fatty acid 5-lipoxygenase (Homo sapiens, UniProt P09917); test: Inhibition of 5-LOX (unknown origin) after 5 mins by colorimetric method
T2 sequence (P09917 whole entry): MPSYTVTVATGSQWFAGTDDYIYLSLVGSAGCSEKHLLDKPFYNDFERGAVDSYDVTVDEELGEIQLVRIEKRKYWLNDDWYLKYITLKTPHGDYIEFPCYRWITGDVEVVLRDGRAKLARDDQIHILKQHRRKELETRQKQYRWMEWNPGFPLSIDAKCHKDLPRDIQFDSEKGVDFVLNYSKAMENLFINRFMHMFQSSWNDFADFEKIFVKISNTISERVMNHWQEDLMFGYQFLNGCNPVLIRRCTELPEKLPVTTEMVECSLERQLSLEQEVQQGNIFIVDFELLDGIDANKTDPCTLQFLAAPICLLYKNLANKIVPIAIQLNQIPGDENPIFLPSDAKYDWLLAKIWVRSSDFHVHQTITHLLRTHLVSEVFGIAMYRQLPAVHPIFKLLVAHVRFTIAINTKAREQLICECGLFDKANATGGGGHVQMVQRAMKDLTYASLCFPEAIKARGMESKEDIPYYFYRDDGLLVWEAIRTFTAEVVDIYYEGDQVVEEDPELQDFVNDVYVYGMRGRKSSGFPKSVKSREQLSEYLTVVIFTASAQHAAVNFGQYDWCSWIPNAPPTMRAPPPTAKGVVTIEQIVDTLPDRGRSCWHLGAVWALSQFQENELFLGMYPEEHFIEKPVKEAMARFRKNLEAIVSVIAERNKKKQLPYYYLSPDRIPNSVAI

[22] = Anti-inflammatory activity assessed as protein denaturation using bovine serum albumin relative to control; type: functional
[23] = Inhibition of MAPK p38 (unknown origin); design: species or system Homo sapiens
Rattus norvegicus [24] = test: Anti-inflammatory activity in Carrageenan-induced rat paw edema in Wistar rat assessed as reduction in inhibition of edema measured after 4 hrs relative to control; type: functional; design: scale not given: the % may be the effect or the level left
Rattus norvegicus [25] = test: Anti-ulcerative activity in aspirin induced Wistar rat ulcer model assessed as inhibition of ulcer index at 20 mg/kg,po; type: functional
[26] = Selectivity index, ratio of IC50 for ovine COX1 to IC50 for recombinant human COX2
Rattus norvegicus [27] = test: Anti-inflammatory activity in Carrageenan-induced paw edema in Wistar albino rat assessed as inhibition of edema measured after 3 hrs relative to control; type: functional
Mus musculus [28] = test: Anti-inflammatory activity in Carrageenan-induced paw edema in PO dosed mouse at 100 mg/kg assessed as inhibition of edema measured after 3 hr relative to control; type: functional; design: scale not given: the % may be the effect or the level left
Rattus norvegicus [29] = test: Anti-inflammatory activity in Carageenan-induced foot paw edema in Sprague-Dawley rat at 50 mg/kg assessed as reduction in paw edema volume relative to control; type: functional; design: scale not given: the % may be the effect or the level left
Rattus norvegicus [30] = test: Anti-inflammatory activity in Carrageenan-induced paw edema in Wistar albino rat assessed as inhibition of paw edema measured after 1 hr relative to control; type: functional
Rattus norvegicus [31] = test: Anti-inflammatory activity in Carrageenan-induced paw edema in Wistar albino rat assessed as inhibition of paw edema measured after 3 hr relative to control; type: functional
Rattus norvegicus [32] = test: Anti-inflammatory activity against Carrageenan-induced paw edema in Wistar albino rat ulcerogenic activity assessed as reduction in severity index; type: functional
Rattus norvegicus [33] = test: Anti-inflammatory activity in Carrageenan-induced paw edema in Wistar albino rat assessed as inhibition of paw edema measured after 2 hr relative to control; type: functional

Prostaglandin G/H synthase 1 (Homo sapiens, UniProt P23219), sequence (P23219 whole entry): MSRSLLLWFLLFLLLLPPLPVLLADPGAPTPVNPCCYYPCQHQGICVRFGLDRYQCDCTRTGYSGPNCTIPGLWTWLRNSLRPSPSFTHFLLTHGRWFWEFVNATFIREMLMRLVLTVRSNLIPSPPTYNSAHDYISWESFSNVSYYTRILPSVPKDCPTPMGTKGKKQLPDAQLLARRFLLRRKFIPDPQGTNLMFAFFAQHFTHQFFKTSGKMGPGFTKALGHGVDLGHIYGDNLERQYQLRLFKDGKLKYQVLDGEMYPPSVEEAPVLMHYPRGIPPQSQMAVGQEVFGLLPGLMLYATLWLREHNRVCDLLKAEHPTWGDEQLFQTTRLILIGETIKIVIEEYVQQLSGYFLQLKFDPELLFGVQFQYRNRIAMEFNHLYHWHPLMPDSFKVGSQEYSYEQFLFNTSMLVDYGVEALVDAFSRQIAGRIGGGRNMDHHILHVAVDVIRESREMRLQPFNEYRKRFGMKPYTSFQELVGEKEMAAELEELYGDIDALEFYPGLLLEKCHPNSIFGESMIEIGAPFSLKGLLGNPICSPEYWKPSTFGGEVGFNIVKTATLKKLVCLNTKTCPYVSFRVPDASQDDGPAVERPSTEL

CCCOC(=O)c1nc2c(cnn2-c2ccccc2)c(=O)[nH]1
Activity (Rattus norvegicus [1]): 1.66 mL
Activity (Rattus norvegicus [2]): 0.9 mL
Activity (Rattus norvegicus [3]): 1.8 mL
inhibition (INH) (Rattus norvegicus [4]): 36%
inhibition (INH) (Rattus norvegicus [5]): 40%
inhibition (INH) (Rattus norvegicus [6]): 51%
inhibition (INH) (Rattus norvegicus [7]): 55%
IC50 [8]: 19.5 µM
Activity (Rattus norvegicus [9]): 2.11 mL
inhibition (INH) (Rattus norvegicus [10]): 40%
ED50 (Rattus norvegicus [11]): 8.3 mg/kg
inhibition [12]: 86%

Cc1c(-c2ccccc2)n(C(=O)c2ccc(Cl)cc2)c2ccc(S(C)(=O)=O)cc12
inhibition in vivo at 10 mg/kg (Rattus norvegicus [13]): 73.5%

O=C(NCn1c(-c2ccccc2Cl)nc2ccccc21)c1ccc(Cl)cc1
Activity (Rattus norvegicus [14]): 13.53 mm
Activity (Mus musculus [15]): 62.5%

O=C(O)Cc1ccccc1Nc1c(Cl)cccc1Cl [DICLOFENAC]
Activity (Rattus norvegicus [14]): 32.5 mm
inhibition in vivo at 5 mg/kg (Rattus norvegicus [16]): 50%
Activity (Rattus norvegicus [17]): 30.43%
inhibition (INH) (Mus musculus [18]): 36.1%
Activity (Mus musculus [19]): 65%

Cc1ccc(N/N=C2\C(=N)N(c3ccc(S(N)(=O)=O)cc3)N=C2N)cc1
Activity (Mus musculus [20]): 15%
IC50 [21]: 1920 nM

COc1ccc(NC(=O)c2ccc(Nc3ncnc4c3cnn4-c3ccccc3)cc2)cc1
Activity [22]: 80.2%
IC50 [23]: 38 nM
Activity (Rattus norvegicus [24]): 76.35%

CCc1c(-c2ccccc2)n(C(=O)c2ccc(F)cc2)c2ccc(S(C)(=O)=O)cc12
UI (Rattus norvegicus [25]): 7.3
Selectivity Index [26]: 65.7
inhibition (INH) (Rattus norvegicus [27]): 90.5%

COc1ccc(NCc2nc3ccccc3n2C(=O)c2ccccc2)cc1
Activity (Mus musculus [28]): 40.3%
IC50 [12]: 2500 nM

CC1=C(c2ccc(C(=O)NNC(=S)Nc3ccccc3)cn2)SC2Nc3ccccc3N12 (stereo not drawn)
Activity (Rattus norvegicus [29]): 79.5%
IC50 [8]: 0.044 µM

Cc1ccccc1-c1nnc(Cn2c(CN3CCOCC3)nc3ccccc32)o1
inhibition (INH) (Rattus norvegicus [30]): 62.29%
inhibition (INH) (Rattus norvegicus [31]): 31.25%
Activity (Rattus norvegicus [32]): 0.32 mm
inhibition (INH) (Rattus norvegicus [33]): 68.31%

C[C@H](NC(=O)c1nc2c(cnn2-c2ccccc2)c(=O)[nH]1)c1ccccc1
Activity (Rattus norvegicus [1]): 1.5 mL
Activity (Rattus norvegicus [2]): 1.05 mL
Activity (Rattus norvegicus [3]): 1.69 mL
inhibition (INH) (Rattus norvegicus [4]): 51%
inhibition (INH) (Rattus norvegicus [5]): 64%
inhibition (INH) (Rattus norvegicus [6]): 65%
inhibition (INH) (Rattus norvegicus [7]): 64%
IC50 [8]: 28.4 µM
Activity (Rattus norvegicus [9]): 2.01 mL
inhibition (INH) (Rattus norvegicus [10]): 64%
ED50 (Rattus norvegicus [11]): 7.6 mg/kg
inhibition [12]: 73.4%
